Data: patent publication US20180185370A1, “PYRAZINOQUINAZOLINONE DERIVATIVES WITH ANTIBACTERIAL ACTIVITY, METHODS AND USES THEREOF” (UNIVERSIDADE DO PORTO, priority 2015, published 2018)
Like-named read-outs stand apart in the source and are kept apart here.

Legend:
S. aureus B1 [1] = assay: Synergy screening with antibiotic discs, disc diffusion method; type: cell-based, Staphylococcus aureus; details: for zone of inhibition on agar plates: not in combination, MRSA isolate S. aureus B1; for inhibition zone: S. aureus B1
Description: (§1) Synergistic studies between compounds and antibiotics. A screening susceptibility test to assess the combined effect between the compounds and antibiotics was conducted using the disc diffusion method on MH, against three multidrug-resistant isolates, E. coli G1, S. aureus B1 and E. faecalis W1. A set of antibiotic discs (Oxoid, Basingstoke, England) was selected based on the resistance of the isolates towards those antibiotics. Based on the results of the previous assay, an unexpected synergetic effect between fiscalin C (see FIG. 1I, equation v) and oxacillin (Sigma-Aldrich, St. Louis, Mo., USA) was determined using, in particular, a broth microdilution Checkerboard method against the MRSA isolate (S. aureus B1). The fractional inhibitory concentration (FIC) was calculated as follows: FIC of drug A (FIC A)=MIC of drug A in combination/MIC of drug A alone, and FIC of drug B (FIC B)=MIC of drug B in combination/MIC of drug B alone. The FIC index (ΣFIC), calculated as the sum of each FIC, was interpreted as follows: ΣFIC 0.5, synergy; 0.5<ΣFIC 4, no interaction; 4<ΣFIC, antagonism.

S. aureus B1 [2] = assay: Broth microdilution Checkerboard method; type: cell-based, Staphylococcus aureus; details: for combined effect with oxacillin: fiscalin C with oxacillin, MRSA (S. aureus B1)
Description: as §1, with “Based on the results of the previous assay, an unexpected synergetic effect between fiscalin C (see FIG. 1I, equation v) and oxacillin (Sigma-Aldrich, St. Louis, Mo., USA) was determined using, in particular, a broth microdilution Checkerboard method against the MRSA isolate (S. aureus B1).” left out

S. aureus ATCC 25923 = assay: Antibacterial susceptibility testing, broth microdilution (MIC/MBC); type: cell-based, Staphylococcus aureus; details: for MIC: Staphylococcus aureus, ATCC25923, read-out: Minimum inhibitory concentration-MIC
Description: (§2) Bacterial strains and growth conditions. Five reference strains, Staphylococcus aureus ATCC 25923, Bacillus subtilis ATCC 6633, E. faecalis ATCC 29212, Escherichia coli ATCC 25922 and Pseudomonas aeruginosa ATCC 27853, and three multidrug-resistant isolates from environment, S. aureus B1 (a MRSA isolated from public buses), Enterococcus faecalis W1 (a VRE isolated from river water) and E. coli G1 (isolated from seagull feces) were used. Bacteria were grown overnight at 37° C. in Mueller-Hinton agar (MH—BioKar diagnostics, Allonne, France) prior to obtain be used in the subsequently described bioassays.
(§3) Antibacterial susceptibility testing. The minimum inhibitory concentration (MIC) values of the compounds of FIGS. 1D, 1E, 1G, 1H (equation i-iv) and 11 (equations v-x) were determined, in particular, by a broth microdilution technique, following the recommendations of the Clinical and Laboratory Standards Institute. Stock solutions of 10 mg/ml in DMSO were used to prepare in-test concentrations ranging from 2 to 256 μg/ml. Ciprofloxacin in the concentration range from 0.03125 to 16 μg/ml was used, in particular, as control drug in the experiment. The MIC was defined as the lowest concentration of compound that has inhibited the visible growth. The minimum bactericidal concentration (MBC) was determined by spreading on MH plates, 10 μL collected from the wells corresponding to the MIC and to higher concentrations, with further incubation for 24 h at 37° C.; the lowest concentration at which no growth occurred on MH was defined as the MBC.

S. aureus B1 (MRSA) = assay: as above; type: cell-based, Staphylococcus aureus; details: for MIC: Staphylococcus aureus, read-out: Minimum inhibitory concentration-MIC
Description: as §2, §3

B. subtilis ATCC 6633 = assay: as above; type: cell-based, Bacillus subtilis; details: for MIC: Bacillus subtilis, ATCC6633, read-out: Minimum inhibitory concentration-MIC
Description: as §2, §3

P. aeruginosa ATCC 27853 = assay: Antibacterial susceptibility testing, broth microdilution (MIC); type: cell-based, Pseudomonas aeruginosa; details: for MIC: Pseudomonas aeruginosa, ATCC27853, read-out: Minimum inhibitory concentration-MIC
Description: as §2, §3

E. coli ATCC 25922 = assay: as above; type: cell-based, Escherichia coli; details: for MIC: Escherichia coli, ATCC25922, read-out: Minimum inhibitory concentration-MIC
Description: as §2, §3

E. faecalis ATCC 29212 = assay: Antibacterial susceptibility testing, broth microdilution (MIC/MBC); type: cell-based, Enterococcus faecalis; details: for MIC: Enterococcus faecalis, ATCC29212, read-out: Minimum inhibitory concentration-MIC
Description: as §2, §3

E. faecalis W1 (VRE) = assay: as above; type: cell-based, Enterococcus faecalis; details: for MIC: Enterococcus faecalis, read-out: Minimum inhibitory concentration-MIC
Description: as §2, §3

Molecule	Minimum inhibitory concentration-MIC (S. aureus ATCC 25923) [µg/mL]	Minimum inhibitory concentration-MIC (S. aureus B1 (MRSA); S. aureus B1 (MRSA)) [µg/mL]	Minimum inhibitory concentration-MIC (B. subtilis ATCC 6633) [µg/mL]	Minimum inhibitory concentration-MIC (P. aeruginosa ATCC 27853) [µg/mL]	Minimum inhibitory concentration-MIC (E. coli ATCC 25922) [µg/mL]	Minimum inhibitory concentration-MIC (E. faecalis ATCC 29212) [µg/mL]	Minimum inhibitory concentration-MIC (E. faecalis W1 (VRE); E. faecalis W1 (VRE)) [µg/mL]	also measured
Cc1onc(-c2ccccc2)c1C(=O)N[C@@H]1C(=O)N2[C@@H]1SC(C)(C)[C@@H]2C(=O)O [Oxacillin, oxacillin, reference compound]								zone of inhibition on agar plates (S. aureus B1 [1]): neither fiscalin C, ampicillin or oxacillin produced any zone of inhibition; MIC (S. aureus B1 [2]; Staphylococcus aureus, drug alone, S. aureus B1, read-out: MIC): 128 µg/mL
CC1(C)C(=O)N2c3ccccc3C3(CC(n4cnc5ccccc5c4=O)C(=O)O3)C2N1O (centres unmarked) [FIG. 1H (eq. i), tryptoquivaline L]	> 256	>256	>256	>256	>256	>256	>256	
epi-fiscalin C [FIG. 1I (eq. vi)]	>256	>256	>256	>256	>256	>256	>256	
CC1(C)S[C@@H]2[C@H](NC(=O)[C@H](N)c3ccccc3)C(=O)N2[C@H]1C(=O)O [Ampicillin, ampicillin, reference compound]								zone of inhibition on agar plates (S. aureus B1 [1]): neither fiscalin C, ampicillin or oxacillin produced any zone of inhibition; MIC (S. aureus B1 [2]; Staphylococcus aureus, B1): 128 µg/mL
CC(C)[C@H]1NC(=O)[C@@H](C[C@]2(O)c3ccccc3N3C(=O)[C@H](C)N[C@H]32)n2c1nc1ccccc1c2=O [FIG. 1I (eq. viii), epi-fiscalin A]	>256	>256	>256	>256	>256	>256	>256	
O=C1OC2(CC1n1cnc3ccccc3c1=O)C(=O)Nc1ccccc12 (centres unmarked) [FIG. 1G, 3′-(4oxoquinazolin-3yl) spiro [1H-indole-3,5′-oxolane]-2,2′-dione]								MIC (S. aureus ATCC 25923): > 256 µg/mL; MIC (S. aureus B1 (MRSA); S. aureus B1 (MRSA)): > 256 µg/mL; MIC (B. subtilis ATCC 6633): > 256 µg/mL; MIC (P. aeruginosa ATCC 27853): > 256 µg/mL; MIC (E. coli ATCC 25922): > 256 µg/mL; MIC (E. faecalis ATCC 29212): > 256 µg/mL; MIC (E. faecalis W1 (VRE); E. faecalis W1 (VRE)): > 256 µg/mL
epi-neofiscalin A [FIG. 1I (eq. x)]	>256	>256	>256	>256	>256	>256	>256	
C[C@@H]1N[C@@H]2N(C1=O)c1ccccc1[C@@]21C[C@@H](n2cnc3ccccc3c2=O)C(=O)O1 [FIG. 1H (eq. iii), tryptoquivaline F]	>256	>256	>256	>256	>256	>256	>256	
CC(=O)O[C@H](c1nc2ccccc2c(=O)n1[C@@H]1C[C@]2(OC1=O)c1ccccc1N1C(=O)C(C)(C)N(O)[C@H]12)C(C)C [FIG. 1E, tryptoquivaline]								MIC (S. aureus ATCC 25923): > 256 µg/mL; MIC (S. aureus B1 (MRSA); MRSA): > 256 µg/mL; MIC (B. subtilis ATCC 6633): > 256 µg/mL; MIC (P. aeruginosa ATCC 27853): > 256 µg/mL; MIC (E. coli ATCC 25922): > 256 µg/mL; MIC (E. faecalis ATCC 29212): > 256 µg/mL; MIC (E. faecalis W1 (VRE); VRE): > 256 µg/mL
CC(C)[C@@H]1NC(=O)[C@@H](C[C@]2(O)c3ccccc3N3C(=O)C(C)(C)N[C@H]32)n2c1nc1ccccc1c2=O [FIG. 1I (eq. v), fiscalin C]	>256	>256	>256	>256	>256	>256	>256	inhibition zone (S. aureus B1 [1]; fiscalin C in combination with ampicillin): 8 mm; inhibition zone (S. aureus B1 [1]; fiscalin C in combination with oxacillin): 10 mm; zone of inhibition on agar plates (S. aureus B1 [1]): neither fiscalin C, ampicillin or oxacillin produced any zone of inhibition; MIC (S. aureus B1 [2]; drug alone, S. aureus B1): >512 µg/mL; combined effect with ampicillin (S. aureus B1 [2]; fiscalin C with ampicillin, S. aureus B1): indifferent; combined effect with oxacillin (S. aureus B1 [2]; listed as Fiscalin C): synergistic effect; combined effect with oxacillin (S. aureus B1 [2]; listed as fiscalin C): clear synergistic effect
CC(C)[C@@H]1NC(=O)[C@@H](C[C@]2(O)c3ccccc3N3C(=O)[C@H](C)N[C@H]32)n2c1nc1ccccc1c2=O [FIG. 1I (eq. vii), fiscalin A]	>256	>256	>256	>256	>256	>256	>256	
CC(C)[C@]12NC(=O)[C@H](Cc3c1[nH]c1ccccc31)n1c2nc2ccccc2c1=O [FIG. 1D, sartorymensin]	> 256	>256	>256	>256	>256	>256	>256	
tryptoquivaline O [FIG. 1H (eq. iv)]	>256	>256	>256	>256	>256	>256	>256	
C[C@H]1C(=O)N2c3ccccc3[C@@]3(C[C@@H](n4cnc5ccccc5c4=O)C(=O)O3)[C@@H]2N1O [FIG. 1H (eq. ii), tryptoquivaline H]	> 256	>256	>256	>256	>256	>256	>256	
